Source: article PMC5928880 (Theranostics, 2018)
Where “and” joins values, the source holds several entries; their conditions need not be identical. Equal values may be shown once. Read-outs that look alike come from different tables or passages of the source.

Experiments:
[1] = tested on: myeloid leukemia cells; conditions: short course (3-7 days), high doses (20-30 mg/kg/day); ref [54]; cited from earlier work
[2] = tested on: MV4-11 cells; test: Antiproliferation assay; format: cell-based, human
[3] = tested on: Jurkat leukemia cells; test: Antiproliferation assay; format: cell-based, human; conditions: for EC50: read-out: Antiproliferative activity EC50, Jurkat; for EC50 / inhibition at 50 µM: Jurkat; for inhibition at 50 µM: read-out: % inhibition at 50 µM, Jurkat; for Effect on growth of Jurkat cells: at 50 µM
[4] = tested on: murine c-kit+ hematopoietic stem/progenitor cells (HSPC); test: Colony-forming assay with hematopoietic stem/progenitor cells; format: cell-based, mouse; conditions: even at 250 nM
[5] = tested on: normal fibroblast WI-38 cells; test: Antiproliferation assay; format: cell-based, human
[6] = i.p. 100 mg/kg/day, 10 injections over 14 days
[7] = tested on: SKNO-1 cells; test: Antiproliferation assay; format: cell-based, human
[8] = tested on: MCF-7 (breast cancer) cells; test: Antiproliferation assay; format: cell-based, human
[9] = tested on: NB4 cells; test: Antiproliferation assay; format: cell-based, human
[10] = tested on: Kasumi-1 cells; test: Antiproliferation assay; format: cell-based, human; conditions: read-out: Antiproliferative activity EC50, Kasumi-1
[11] = tested on: Kasumi-1 and SKNO-1 cells; test: Antiproliferation assay, R-E leukemia cells; format: cell-based, human; conditions: more active than Dex
[12] = ref [44], [45]; cited from earlier work
[13] = tested on: SKNO-1 leukemia; test: Subcutaneous xenograft mouse model of SKNO-1 leukemia; format: in vivo; conditions: i.p. 10 and 20 mg/kg/day, 10 injections in 14 days, NOD-SCID mice
[14] = tested on: Kasumi-1 cells; test: Combination treatment of Kasumi-1 cells, combination index; format: cell-based, human; conditions: Dex in combination with cytarabine, CI < 1 synergism, listed as Dex
[15] = tested on: SKNO-1 leukemia; conditions: 15 mg/kg/day i.p. injection for 4 days, ref [37], cited from earlier work
[16] = Homo sapiens, SKNO-1, read-out: Antiproliferative activity EC50, SKNO-1
[17] = Homo sapiens, MV4-11, read-out: Antiproliferative activity EC50, MV4-11
[18] = Homo sapiens, WI-38, read-out: Antiproliferative activity EC50, WI-38
[19] = Homo sapiens, MCF7, read-out: Antiproliferative activity EC50, MCF-7
[20] = Homo sapiens, NB-4, read-out: Antiproliferative activity EC50, NB4

## C[C@H]1C[C@@H]2[C@H]([C@@H](O)C[C@@]3(C)[C@H]2CC[C@]3(O)C(=O)CO)[C@@]2(C)C=CC(=O)C=C12 [methylprednisolone]
[1]
  Differentiation of myeloid leukemia cells in children with AML: induce differentiation of myeloid leukemia cells

## C[C@@H]1C[C@H]2[C@@H]3CCC4=CC(=O)C=C[C@]4(C)[C@@]3(F)[C@@H](O)C[C@]2(C)[C@@]1(O)C(=O)COP(=O)(O)O [Dex-P, dexamethasone-21-phosphate]
[2]; read-out: Antiproliferative activity EC50, MV4-11, MV4-11
  EC50: > 50 µM
[3]
  EC50: > 50 µM
[4]
  Effect on colony-forming ability of murine HSPC: did not significantly affect
[5]; read-out: Antiproliferative activity EC50, WI-38, WI-38
  EC50: > 50 µM
[6]
  Toxicity to mice: without overt toxicities
[7]; read-out: Antiproliferative activity EC50, SKNO-1, SKNO-1
  EC50: 0.017 µM
[8]; read-out: Antiproliferative activity EC50, MCF-7, MCF-7
  EC50: > 50 µM
[9]; read-out: Antiproliferative activity EC50, NB4, NB4
  EC50: > 50 µM
[10]
  EC50: 0.009 µM
[11]
  Activity compared to parent compound Dex (fold more active): ~ 2 fold
[12]
  t1/2 in humans: 4.7 h
[13]
  Survival in SKNO-1 xenograft: prolonged survivals
  Tumor growth in SKNO-1 xenograft: significant tumor growth inhibition

## C[C@]12C=CC(=O)C=C1CC[C@@H]1[C@@H]2[C@@H](O)C[C@@]2(C)[C@H]1CC[C@]2(O)C(=O)CO [Prednisolone, prednisolone]
[3]; Homo sapiens
  EC50: > 50 µM
[7]; [16]
  EC50: 0.15 µM

## CC=CC(=O)N(CC)c1ccccc1C (mixture of isomers) [Crotamiton, crotamiton]
[3]; Homo sapiens
  inhibition at 50 µM: 11.2%
  EC50: > 50 µM

## COc1cc2ccc(=O)oc2cc1O [Scopoletin, scopoletin]
[3]; Homo sapiens
  inhibition at 50 µM: 29.4%
  EC50: > 50 µM

## C[C@@H]1C[C@H]2[C@@H]3CCC4=CC(=O)C=C[C@]4(C)[C@@]3(F)[C@@H](O)C[C@]2(C)[C@@]1(O)C(=O)CO [Dexamethasone, dexamethasone]
[2]; [17]
  EC50: > 50 µM
[3]; Homo sapiens
  EC50: > 50 µM
[5]; [18]
  EC50: > 50 µM
[14]
  Combination index (CI): 0.13-0.75 and 0.13 to 0.75
[7]; [16]
  EC50: 0.029 µM
[8]; [19]
  EC50: > 50 µM
[9]; [20]
  EC50: > 50 µM
[15]
  In vivo activity (tumor burden) in mouse model of SKNO-1 leukemia: did not reduce in vivo tumor burden
[15]; listed as Dex
  In vivo activity (tumor burden) in mouse model of SKNO-1 leukemia: no in vivo activity

## CC(=O)c1ccc2c(c1)N(CCCN(C)C)c1ccccc1S2 [Acepromazine, acepromazine]
[3]; Homo sapiens
  inhibition at 50 µM: 21%
  EC50: > 50 µM

## CO[C@H]1/C=C\C=C(/C)C(=O)NC2=CC(=O)C(NCCN(C)C)=C(C[C@@H](C)C[C@H](OC)[C@H](O)[C@@H](C)/C=C(\C)[C@@H]1OC(N)=O)C2=O [Alvespimycin, alvespimycin]
[2]; [17]
  EC50: 0.09 µM
[3]; Homo sapiens
  EC50: 1.6 µM
[5]; [18]
  EC50: 27 µM
[8]; [19]
  EC50: 5.2 µM
[9]; [20]
  EC50: 0.055 µM

## C[C@H]1C[C@H]2[C@@H]3CCC4=CC(=O)C=C[C@]4(C)[C@@]3(F)[C@@H](O)C[C@]2(C)[C@@]1(O)C(=O)CO [Betamethasone, betamethasone]
[2]; [17]
  EC50: > 50 µM
[3]; Homo sapiens
  inhibition at 50 µM: 6.9%
  EC50: > 50 µM
[3]
  Effect on growth of Jurkat cells: did not affect growth
[4]
  Effect on colony-forming ability of murine HSPC: did not significantly affect
[5]; [18]
  EC50: > 50 µM
[7]; [16]
  EC50: 0.059 µM
[8]; [19]
  EC50: > 50 µM
[9]; [20]
  EC50: > 50 µM

## C=CCNC1=C2C[C@@H](C)C[C@H](OC)[C@H](O)[C@@H](C)/C=C(\C)[C@H](OC(N)=O)[C@@H](OC)/C=C\C=C(/C)C(=O)NC(=CC1=O)C2=O [Tanespimycin, tanespimycin]
[2]; [17]
  EC50: 0.52 µM
[3]; Homo sapiens
  EC50: ~50 µM
[5]; [18]
  EC50: > 50 µM
[8]; [19]
  EC50: > 50 µM
[9]; [20]
  EC50: 0.42 µM

## Cc1c(Nc2ncccc2C(=O)O)cccc1C(F)(F)F [Fluninxin]
[3]
  Effect on growth of Jurkat cells: inactive
  EC50: ~50 µM
[10]
  EC50: 14.7 µM

## CCCNCC(O)COc1ccccc1C(=O)CCc1ccccc1 (centres unmarked) [Propafenone, propafenone]
[3]; Homo sapiens
  inhibition at 50 µM: 2.5%
  EC50: > 50 µM

## C[C@]12CCC(=O)C=C1CC[C@@H]1[C@@H]2[C@@H](O)C[C@@]2(C)[C@H]1CC[C@]2(O)C(=O)CO [Hydrocortisone, hydrocortisone]
[3]; Homo sapiens
  EC50: > 50 µM
[7]; [16]
  EC50: 0.41 µM

## COc1ccc2cc(CCC(C)=O)ccc2c1 [Nabumetone]
[3]; Homo sapiens
  inhibition at 50 µM: -3.5%
  EC50: > 50 µM
[3]
  Effect on growth of Jurkat cells: inactive
[10]
  EC50: 18.5 µM

## CN(C)/N=N/c1[nH]cnc1C(N)=O [Dacarbazine, dacarbazine]
[3]; Homo sapiens
  EC50: 15.2 µM
